The values that follow come from paper PMC2397535 (Breast Cancer Research : BCR, 2008).

In one experiment the test system is SkBr3. Put plainly: antiproliferative effect (GI50), breast cancer cell line. It counts as cell-based. The following applies: Homo sapiens, SK-BR-3.
Another experiment deals with BT-474. The description is as above. The conditions noted are these: Homo sapiens. It counts as cell-based.
Another experiment deals with BT20. The description is as above. The following applies: Homo sapiens, BT-20. The class given is cell-based.
The subject of the next experiment is MCF-7. Described as above. The class given is cell-based. The following applies: Homo sapiens, MCF7.
Another experiment deals with HSP90-p23 complex (Homo sapiens, UniProt P07900). Here is the method: For immunoprecipitation, 300 μg of total protein was immunoprecipitated with 5 μg of rat anti-HSP90α monoclonal antibody (SPA-840, clone 9D2, isotype: IgG2a; Assay Designs, Inc.). Proteins were resolved by 12% SDS-PAGE and transferred to PVDF membranes.
A further experiment concerns MDA-MB-157. As to the kind of experiment: antiproliferative effect (GI50), breast cancer cell line. The conditions noted are these: Homo sapiens. The class given is cell-based.
The subject of a further experiment is MDA-MB-468. Described as above. The class given is cell-based. The following applies: Homo sapiens.
For another experiment, the system named is MDA-MB-231. The description is as above. The class given is cell-based. The conditions noted are these: Homo sapiens.

SMILES strings stand for the structures.

Regarding `C=CCNC1=C2C[C@@H](C)C[C@H](OC)[C@H](O)[C@@H](C)/C=C(\C)[C@H](OC(N)=O)[C@@H](OC)/C=C\C=C(/C)C(=O)NC(=CC1=O)C2=O` [17-AAG, 17-allylamino-17-demethoxygeldanamycin, reference compound], the GI50 in the experiment on SkBr3 amounted to 11.9 ± 8 nM; with BT-474, 17.4 ± 5.2 nM; with BT20, 18.9 ± 4.8 nM; with MCF-7 it was 69 ± 18.3 nM; in the experiment on MDA-MB-157, 29.5 ± 20.8 nM; in the experiment with MDA-MB-468 it was 1660 nM. This molecule had a GI50 with MDA-MB-231 of 2060 nM. In addition, the “amount of HSP90α co-immunoprecipitating with p23” value on HSP90-p23 complex is “concentration-dependent decrease”. In addition, the “time to complete HSP90-p23 dissociation (full inhibition)” value on HSP90-p23 complex was not above 15 min.
